Experimental data: article PMC5862516 (PLoS Neglected Tropical Diseases, 2018)
Read-outs that look alike come from different tables or passages of the source.

How the values were obtained:
SOSV minigenome [1] = assay: microbe, parasite or virus in culture; conditions: Sosuga virus; for activity at 0.05 µM / activity at 0.5 µM / activity at 5 µM: Huh-7, 72 h, read-out: Minigenome activity (Relative ZsG fluorescence); for EC50: Huh-7, read-out: Minigenome Screen EC50
rSOSV/ZsG = assay: microbe, parasite or virus in culture; format: cell-based; conditions: Sosuga virus, Huh-7, read-out: rSOSV/ZsG Screen EC50
rSOSV = assay: microbe, parasite or virus in culture; format: cell-based; conditions: Sosuga virus, Huh-7, 48 h, read-out: EC50 (rSOSV protein immunofluorescence)
in vitro = conditions: human
SOSV minigenome [2] = conditions: Huh7 cells; for Minigenome activity (Relative ZsG fluorescence): relative to mock-treated controls
[3] = human, in vivo, 125 mg/kg/day; cited from earlier work
Huh7 cells = conditions: human

Nc1nc(Cl)nc2c1ncn2[C@@H]1O[C@H](CO)[C@@H](O)[C@H]1O [2-Chloroadenosine]
activity at 0.05 µM (SOSV minigenome [1]): 148%
activity at 0.5 µM (SOSV minigenome [1]): 143%
activity at 5 µM (SOSV minigenome [1]): 145%

C[C@@]1(O)[C@H](O)[C@@H](CO)O[C@H]1n1ccc(N)nc1=O [2′-C-Methylcytidine]
activity at 0.05 µM (SOSV minigenome [1]): 124%
activity at 0.5 µM (SOSV minigenome [1]): 104%
activity at 5 µM (SOSV minigenome [1]): 114%

C[C@@]1(O)[C@H](O)[C@@H](CO)O[C@H]1n1ccc(=O)[nH]c1=O [2′-C-Methyluridine]
activity at 0.05 µM (SOSV minigenome [1]): 132%
activity at 0.5 µM (SOSV minigenome [1]): 101%
activity at 5 µM (SOSV minigenome [1]): 125%

CO[C@@H]1[C@H](O)[C@@H](CO)O[C@H]1n1ccc(N)nc1=O [2′-O-Methylcytidine]
activity at 0.05 µM (SOSV minigenome [1]): 129%
activity at 0.5 µM (SOSV minigenome [1]): 104%
activity at 5 µM (SOSV minigenome [1]): 119%

CO[C@@H]1[C@H](O)[C@@H](CO)O[C@H]1n1ccc(=O)[nH]c1=O [2′-O-Methyluridine]
activity at 0.05 µM (SOSV minigenome [1]): 150%
activity at 0.5 µM (SOSV minigenome [1]): 104%
activity at 5 µM (SOSV minigenome [1]): 142%

Nc1ccn([C@@H]2O[C@H](CO)[C@@H](O)[C@H]2F)c(=O)n1 [2′-deoxy-2′-fluorocytidine]
EC50 (rSOSV/ZsG): 1.48 ± 0.22 µM
activity at 0.05 µM (SOSV minigenome [1]): 141%
activity at 0.5 µM (SOSV minigenome [1]): 91%
activity at 5 µM (SOSV minigenome [1]): 13%
EC50 (SOSV minigenome [1]): 1.31 ± 0.15 µM
EC50 (rSOSV): 4.09 µM
viability (in vitro): > 80%
CC50 (in vitro): > 50 µM

Nc1ncn([C@@H]2O[C@H](CO)[C@@H](O)[C@H]2O)c(=O)n1 [5-Azacytidine]
activity at 0.05 µM (SOSV minigenome [1]): 146%
activity at 0.5 µM (SOSV minigenome [1]): 111%
activity at 5 µM (SOSV minigenome [1]): 108%

[N-]=[N+]=Nc1cn([C@@H]2O[C@H](CO)[C@@H](O)[C@H]2O)c(=O)[nH]c1=O [5-Azidouridine]
activity at 0.05 µM (SOSV minigenome [1]): 114%
activity at 0.5 µM (SOSV minigenome [1]): 104%
activity at 5 µM (SOSV minigenome [1]): 107%

O=c1[nH]c(=O)n([C@@H]2O[C@H](CO)[C@@H](O)[C@H]2O)cc1Br [5-Bromouridine]
activity at 0.05 µM (SOSV minigenome [1]): 97%
activity at 0.5 µM (SOSV minigenome [1]): 92%
activity at 5 µM (SOSV minigenome [1]): 122%

O=c1[nH]c(=O)n([C@@H]2O[C@H](CO)[C@@H](O)[C@H]2O)cc1Cl [5-Chlorouridine]
activity at 0.05 µM (SOSV minigenome [1]): 119%
activity at 0.5 µM (SOSV minigenome [1]): 125%
activity at 5 µM (SOSV minigenome [1]): 146%

Cc1cn([C@@H]2O[C@H](CO)[C@@H](O)[C@H]2O)c(=O)nc1N [5-Methylcytidine]
activity at 0.05 µM (SOSV minigenome [1]): 124%
activity at 0.5 µM (SOSV minigenome [1]): 110%
activity at 5 µM (SOSV minigenome [1]): 125%

O=c1[nH]c(=O)n([C@@H]2O[C@H](CO)[C@@H](O)[C@H]2O)cc1F [5-fluorouridine]
activity at 0.05 µM (SOSV minigenome [1]): 112%
activity at 0.5 µM (SOSV minigenome [1]): 25%
activity at 5 µM (SOSV minigenome [1]): 10%
EC50 (SOSV minigenome [1]): 0.29 ± 0.13 µM
Extent of minigenome signal inhibition and cytotoxicity (SOSV minigenome [2]; dose-response analysis): did not completely inhibit minigenome signal even at the highest concentrations evaluated
viability (in vitro): > 80%
CC50 (in vitro): > 50 µM

O=c1cnn([C@@H]2O[C@H](CO)[C@@H](O)[C@H]2O)c(=S)[nH]1 [6-Aza-2-thiouridine]
activity at 0.05 µM (SOSV minigenome [1]): 128%
activity at 0.5 µM (SOSV minigenome [1]): 95%
activity at 5 µM (SOSV minigenome [1]): 110%

CC(=O)OC[C@H]1O[C@@H](n2ncc(=O)[nH]c2=O)[C@H](OC(C)=O)[C@@H]1OC(C)=O [6-azauridine triacetate]
plasma concentrations [3]: ≥ 100 µM

O=c1cnn([C@@H]2O[C@H](CO)[C@@H](O)[C@H]2O)c(=O)[nH]1 [6-azauridine]
EC50 (rSOSV/ZsG): 7.99 ± 1.32 µM
activity at 0.05 µM (SOSV minigenome [1]): 120%
activity at 0.5 µM (SOSV minigenome [1]): 103%
activity at 5 µM (SOSV minigenome [1]): 46%
EC50 (SOSV minigenome [1]): 5.17 ± 1.01 µM
EC50 (rSOSV): 8.9 µM
viability (in vitro): > 80%
CC50 (in vitro): > 50 µM

C[C@@]1(O)[C@H](O)[C@@H](CO)O[C@H]1n1ccc2c(N)ncnc21 [7-DMA]
Minigenome activity (Relative ZsG fluorescence) (SOSV minigenome [2]; 50 nM): 1.26
Minigenome activity (Relative ZsG fluorescence) (SOSV minigenome [2]; 500 nM): 1.02
Minigenome activity (Relative ZsG fluorescence) (SOSV minigenome [2]; 5000 nM): 1.06

Nc1ncnc2c1nnn2[C@@H]1O[C@H](CO)[C@@H](O)[C@H]1O [8-Azaadenosine]
activity at 0.05 µM (SOSV minigenome [1]): 146%
activity at 0.5 µM (SOSV minigenome [1]): 85%
activity at 5 µM (SOSV minigenome [1]): 2%

[N-]=[N+]=Nc1nc2c(N)ncnc2n1[C@@H]1O[C@H](CO)[C@@H](O)[C@H]1O [8-Azidoadenosine]
activity at 0.05 µM (SOSV minigenome [1]): 120%
activity at 0.5 µM (SOSV minigenome [1]): 122%
activity at 5 µM (SOSV minigenome [1]): 1%

COc1c(-c2ccc3cc(NS(C)(=O)=O)ccc3c2)cc(-n2ccc(=O)[nH]c2=O)cc1C(C)(C)C [ABT-333]
activity at 0.05 µM (SOSV minigenome [1]): 127%
activity at 0.5 µM (SOSV minigenome [1]): 108%
activity at 5 µM (SOSV minigenome [1]): 105%

CC[C@H]1OC(=O)[C@H](C)[C@@H](O[C@H]2C[C@@](C)(OC)[C@@H](O)[C@H](C)O2)[C@H](C)[C@@H](O[C@@H]2O[C@H](C)C[C@H](N(C)C)[C@H]2O)[C@](C)(O)C[C@@H](C)CN(C)[C@H](C)[C@@H](O)[C@]1(C)O [Azithromycin]
activity at 0.05 µM (SOSV minigenome [1]): 102%
activity at 0.5 µM (SOSV minigenome [1]): 106%
activity at 5 µM (SOSV minigenome [1]): 111%

Nc1ncnc2c([C@@H]3N[C@H](CO)[C@@H](O)[C@H]3O)c[nH]c12 [BCX-4430]
activity at 0.05 µM (SOSV minigenome [1]): 133%
activity at 0.5 µM (SOSV minigenome [1]): 105%
activity at 5 µM (SOSV minigenome [1]): 118%

CC(C)C(=O)OC[C@@]1(N=[N+]=[N-])O[C@@H](n2ccc(N)nc2=O)[C@H](OC(=O)C(C)C)[C@@H]1OC(=O)C(C)C [Balapiravir (R1626), Balapiravir]
activity at 0.05 µM (SOSV minigenome [1]): 105%
activity at 0.5 µM (SOSV minigenome [1]): 93%
activity at 5 µM (SOSV minigenome [1]): 90%

Nc1ncnc2c1ncn2[C@@H]1O[C@H](CO)C[C@H]1O [Cordycepin]
activity at 0.05 µM (SOSV minigenome [1]): 128%
activity at 0.5 µM (SOSV minigenome [1]): 104%
activity at 5 µM (SOSV minigenome [1]): 101%

COc1c(C)c2c(c(O)c1C/C=C(\C)CCC(=O)O)C(=O)OC2 [Mycophenolic acid]
EC50 (rSOSV/ZsG): 0.33 ± 0.04 µM
CC50 (Huh7 cells): 1.74 ± 0.42 µM
activity at 0.05 µM (SOSV minigenome [1]): 89%
activity at 0.5 µM (SOSV minigenome [1]): 14%
activity at 5 µM (SOSV minigenome [1]): 1%
EC50 (rSOSV): 0.48 µM
Minigenome Screen EC50 (SOSV minigenome [2]; ZsG fluorescence 72 hpt, normalized to mock-treated (DMSO) cells, listed as MPA): sub-micromolar
viability (in vitro): > 80%
CC50 (in vitro): 1.7 µM

C#C[C@@]1(O)[C@H](O)[C@@H](CO)O[C@H]1n1ccc2c(N)ncnc21 [NITD008]
Minigenome activity (Relative ZsG fluorescence) (SOSV minigenome [2]; 50 nM): 1.35
Minigenome activity (Relative ZsG fluorescence) (SOSV minigenome [2]; 500 nM): 1.07
Minigenome activity (Relative ZsG fluorescence) (SOSV minigenome [2]; 5000 nM): 1.13

C[C@@]1(F)[C@H](O)[C@@H](CO)O[C@H]1n1ccc(N)nc1=O [PSI-6130]
Minigenome activity (Relative ZsG fluorescence) (SOSV minigenome [2]; 50 nM): 0.84
Minigenome activity (Relative ZsG fluorescence) (SOSV minigenome [2]; 500 nM): 0.85
Minigenome activity (Relative ZsG fluorescence) (SOSV minigenome [2]; 5000 nM): 0.91

CC(C)OC(=O)[C@H](C)N[P@](=O)(OC[C@H]1O[C@@H](n2ccc(=O)[nH]c2=O)[C@](C)(F)[C@@H]1O)Oc1ccccc1 [PSI-7977]
activity at 0.05 µM (SOSV minigenome [1]): 102%
activity at 0.5 µM (SOSV minigenome [1]): 102%
activity at 5 µM (SOSV minigenome [1]): 89%

[N-]=[N+]=N[C@]1(CO)O[C@@H](n2ccc(N)nc2=O)[C@H](O)[C@@H]1O [R-1479]
Minigenome activity (Relative ZsG fluorescence) (SOSV minigenome [2]; 50 nM): 0.91
Minigenome activity (Relative ZsG fluorescence) (SOSV minigenome [2]; 500 nM): 0.84
Minigenome activity (Relative ZsG fluorescence) (SOSV minigenome [2]; 5000 nM): 0.73

CC(C)C(=O)OC[C@H]1O[C@@H](n2ccc(N)nc2=O)[C@](C)(F)[C@@H]1OC(=O)C(C)C [R-7128]
Minigenome activity (Relative ZsG fluorescence) (SOSV minigenome [2]; 50 nM): 0.84
Minigenome activity (Relative ZsG fluorescence) (SOSV minigenome [2]; 500 nM): 0.87
Minigenome activity (Relative ZsG fluorescence) (SOSV minigenome [2]; 5000 nM): 0.99

NC(=O)c1ncn([C@@H]2O[C@H](CO)[C@@H](O)[C@H]2O)n1 [Ribavirin]
EC50 (rSOSV/ZsG): 6.1 ± 0.09 µM
activity at 0.05 µM (SOSV minigenome [1]): 136%
activity at 0.5 µM (SOSV minigenome [1]): 113%
activity at 5 µM (SOSV minigenome [1]): 78%
EC50 (SOSV minigenome [1]): 5.91 ± 0.85 µM
CC50 (in vitro): > 50 µM

Cc1cn([C@H]2C=C[C@@H](CO)O2)c(=O)[nH]c1=O [Stavudine]
activity at 0.05 µM (SOSV minigenome [1]): 126%
activity at 0.5 µM (SOSV minigenome [1]): 104%
activity at 5 µM (SOSV minigenome [1]): 115%

NC(=O)c1nc(F)cnc1O [T-705]
Minigenome activity (Relative ZsG fluorescence) (SOSV minigenome [2]; 50 nM): 1.11
Minigenome activity (Relative ZsG fluorescence) (SOSV minigenome [2]; 500 nM): 1.17
Minigenome activity (Relative ZsG fluorescence) (SOSV minigenome [2]; 5000 nM): 1.05

C[C@H](Cn1cnc2c(N)ncnc21)OCP(=O)(O)O [Tenofovir]
activity at 0.05 µM (SOSV minigenome [1]): 110%
activity at 0.5 µM (SOSV minigenome [1]): 106%
activity at 5 µM (SOSV minigenome [1]): 107%

Cc1cn([C@H]2C[C@H](N=[N+]=[N-])[C@@H](CO)O2)c(=O)[nH]c1=O [Zidovudine]
activity at 0.05 µM (SOSV minigenome [1]): 123%
activity at 0.5 µM (SOSV minigenome [1]): 93%
activity at 5 µM (SOSV minigenome [1]): 113%
